Experimental data from the supplement of paper PMC10307832.

Key:
Assay in all cases: relative viability (nuclei count vs DMSO), 5 days (fraction); higher = more cells survive
AZ505 + Pictilisib = compound: C1CCC(CC1)N(CCNCCC2=C3C(=C(C=C2)O)NC(=O)CO3)C(=O)CCNCCC4=CC(=C(C=C4)Cl)Cl [AZ505] + CS(=O)(=O)N1CCN(Cc2cc3nc(-c4cccc5[nH]ncc45)nc(N4CCOCC4)c3s2)CC1 [Pictilisib] (partner 1 µM)
Procedure, shortened: (§1)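 For relative viability, nuclei counts in treated wells were divided by those in vehicle wells. Lung cancer cell lines had been pin-tool dosed in 1536-well plates the day after seeding and cultured for 5 days, then fixed and stained in one step (final 0.05% Triton X-100, 1% formaldehyde, 1 ug/ml Hoechst) and imaged at 4×. Doses were one drug alone or a fixed anchor-drug dose plus five library-drug doses (not always all listed) in √10 steps, and values are duplicate-plate medians.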

Dactolisib + Phenformin = compound: Cn1c(=O)n(-c2ccc(C(C)(C)C#N)cc2)c2c3cc(-c4cnc5ccccc5c4)ccc3ncc21 [Dactolisib] + N=C(N)NC(=N)NCCc1ccccc1 [Phenformin] (partner 250 µM)
Procedure, shortened: as §1

AZ505 + AZD7762 = compound: C1CCC(CC1)N(CCNCCC2=C3C(=C(C=C2)O)NC(=O)CO3)C(=O)CCNCCC4=CC(=C(C=C4)Cl)Cl [AZ505] + NC(=O)Nc1cc(-c2cccc(F)c2)sc1C(=O)N[C@H]1CCCNC1 [AZD7762] (partner 0.2 µM)
Procedure, shortened: as §1

AZ505 + Trametinib = compound: C1CCC(CC1)N(CCNCCC2=C3C(=C(C=C2)O)NC(=O)CO3)C(=O)CCNCCC4=CC(=C(C=C4)Cl)Cl [AZ505] + CC(=O)Nc1cccc(-n2c(=O)n(C3CC3)c(=O)c3c(Nc4ccc(I)cc4F)n(C)c(=O)c(C)c32)c1 [Trametinib] (partner 0.02 µM)
Procedure, shortened: as §1

Row | Cell Line | relative viability (AZ505 + Pictilisib; first compound 0.08 µM) | relative viability (AZ505 + Pictilisib; first compound 0.253 µM) | relative viability (AZ505 + Pictilisib; first compound 0.8 µM) | relative viability (AZ505 + Pictilisib; first compound 2.53 µM) | relative viability (AZ505 + Pictilisib; first compound 8 µM) | relative viability (Dactolisib + Phenformin; first compound 0.002 µM) | relative viability (Dactolisib + Phenformin; first compound 0.006325 µM) | relative viability (Dactolisib + Phenformin; first compound 0.02 µM) | relative viability (Dactolisib + Phenformin; first compound 0.06325 µM) | relative viability (Dactolisib + Phenformin; first compound 0.2 µM) | relative viability (AZ505 + AZD7762; first compound 0.08 µM) | relative viability (AZ505 + AZD7762; first compound 0.253 µM) | relative viability (AZ505 + AZD7762; first compound 0.8 µM) | relative viability (AZ505 + AZD7762; first compound 2.53 µM) | relative viability (AZ505 + AZD7762; first compound 8 µM) | relative viability (AZ505 + Trametinib; first compound 0.08 µM) | relative viability (AZ505 + Trametinib; first compound 0.253 µM) | relative viability (AZ505 + Trametinib; first compound 0.8 µM) | relative viability (AZ505 + Trametinib; first compound 2.53 µM) | relative viability (AZ505 + Trametinib; first compound 8 µM)
1 | NCI-H3122 | 0.561 | 0.573 | 0.665 | 0.409 | 0.643 | 0.381 | 0.385 | 0.416 | 0.378 | 0.317 | 0.923 | 1.01 | 1 | 0.974 | 1.03 | 0.211 | 0.258 | 0.215 | 0.27 | 0.267
2 | NCI-H2087 | 0.679 | 0.703 | 0.797 | 0.738 | 0.828 | 0.622 | 0.454 | 0.378 | 0.286 | 0.123 | 1.22 | 1.24 | 1.35 | 1.15 | 1.24 | 0.171 | 0.257 | 0.221 | 0.281 | 0.219
3 | LC-2-ad | 0.427 | 0.422 | 0.465 | 0.515 | 0.508 | 0.601 | 0.572 | 0.539 | 0.42 | 0.391 | 0.801 | 0.821 | 0.867 | 0.847 | 0.832 | 0.844 | 0.885 | 0.894 | 0.889 | 0.947
4 | NCI-H1915 | 0.907 | 0.891 | 0.835 | 0.703 | 0.913 | 0.376 | 0.387 | 0.391 | 0.344 | 0.327 | 0.707 | 0.753 | 0.7 | 0.727 | 0.716 | 0.294 | 0.303 | 0.236 | 0.266 | 0.301
5 | NCI-H1793 | 0.284 | 0.417 | 0.426 | 0.31 | 0.386 | 0.477 | 0.294 | 0.228 | 0.202 | 0.187 | 0.466 | 0.513 | 0.574 | 0.404 | 0.407 | 0.382 | 0.372 | 0.416 | 0.428 | 0.434
6 | RERF-LC-KJ | 0.578 | 0.591 | 0.448 | 0.565 | 0.666 | 0.42 | 0.415 | 0.428 | 0.298 | 0.302 | 0.95 | 0.964 | 0.923 | 0.98 | 0.909 | 0.863 | 0.958 | 0.797 | 0.878 | 0.71
7 | LXF-289 | 0.706 |  | 0.773 | 0.731 | 0.818 | 0.571 | 0.499 | 0.534 | 0.518 | 0.439 | 1.07 | 1.04 | 1.14 | 1.03 | 1.16 | 0.632 | 0.629 | 0.66 | 0.678 | 0.665
8 | PC-14 | 0.449 | 0.754 | 0.658 | 0.643 | 0.703 | 0.642 | 0.523 | 0.45 | 0.29 | 0.144 | 0.366 | 0.317 | 0.391 | 0.354 | 0.372 | 0.711 | 0.884 | 0.76 | 0.747 | 0.786
